Measurements as given in ChEMBL document CHEMBL5291721, “A preclinical secondary pharmacology resource illuminates target-adverse drug reaction associations of marketed drugs” (Nat Commun, 2023).

Tests used:
[1] = target: Gamma-aminobutyric acid receptor subunit alpha-1/alpha-2/beta-2/gamma-2 (Homo sapiens, UniProt P14867+P18507+P47869+P47870); format: functional, cell-based
[2] = target: T1, Muscarinic acetylcholine receptor M1 (Homo sapiens, UniProt P11229); format: functional, cell-based
T1 sequence (P11229 whole entry): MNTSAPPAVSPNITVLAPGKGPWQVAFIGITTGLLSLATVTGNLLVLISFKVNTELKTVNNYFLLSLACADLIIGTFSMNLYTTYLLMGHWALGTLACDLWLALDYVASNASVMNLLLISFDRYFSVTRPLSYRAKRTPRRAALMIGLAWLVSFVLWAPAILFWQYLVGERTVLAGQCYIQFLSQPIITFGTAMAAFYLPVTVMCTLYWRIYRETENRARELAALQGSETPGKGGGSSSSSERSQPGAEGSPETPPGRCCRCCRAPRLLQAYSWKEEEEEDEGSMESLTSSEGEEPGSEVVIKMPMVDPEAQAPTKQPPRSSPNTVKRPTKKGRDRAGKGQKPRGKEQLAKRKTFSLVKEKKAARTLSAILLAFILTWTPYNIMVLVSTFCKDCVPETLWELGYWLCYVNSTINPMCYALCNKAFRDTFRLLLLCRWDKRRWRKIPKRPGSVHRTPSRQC

[3] = target: T1, Muscarinic acetylcholine receptor M1; format: functional, cell-based; remark: listed apart in the source
[4] = target: Gamma-aminobutyric acid receptor subunit alpha-1 (Rattus norvegicus, UniProt P62813)
Note: assay procedure not described here.

Chain of Gamma-aminobutyric acid receptor subunit alpha-1/alpha-2/beta-2/gamma-2 (P14867 whole entry): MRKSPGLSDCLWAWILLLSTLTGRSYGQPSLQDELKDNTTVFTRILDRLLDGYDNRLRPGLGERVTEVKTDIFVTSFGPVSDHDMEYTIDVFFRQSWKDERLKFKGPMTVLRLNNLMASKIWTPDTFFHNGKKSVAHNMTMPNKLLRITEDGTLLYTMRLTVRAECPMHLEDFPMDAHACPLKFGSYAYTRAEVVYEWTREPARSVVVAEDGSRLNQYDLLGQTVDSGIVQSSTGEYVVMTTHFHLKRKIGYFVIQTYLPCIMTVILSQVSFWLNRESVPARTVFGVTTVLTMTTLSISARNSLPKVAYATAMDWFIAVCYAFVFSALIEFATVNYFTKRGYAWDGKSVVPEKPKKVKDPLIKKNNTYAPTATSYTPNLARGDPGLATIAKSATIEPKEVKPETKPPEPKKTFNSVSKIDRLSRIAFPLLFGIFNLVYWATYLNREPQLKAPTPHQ
Chain of Gamma-aminobutyric acid receptor subunit alpha-1/alpha-2/beta-2/gamma-2 (P47870 whole entry): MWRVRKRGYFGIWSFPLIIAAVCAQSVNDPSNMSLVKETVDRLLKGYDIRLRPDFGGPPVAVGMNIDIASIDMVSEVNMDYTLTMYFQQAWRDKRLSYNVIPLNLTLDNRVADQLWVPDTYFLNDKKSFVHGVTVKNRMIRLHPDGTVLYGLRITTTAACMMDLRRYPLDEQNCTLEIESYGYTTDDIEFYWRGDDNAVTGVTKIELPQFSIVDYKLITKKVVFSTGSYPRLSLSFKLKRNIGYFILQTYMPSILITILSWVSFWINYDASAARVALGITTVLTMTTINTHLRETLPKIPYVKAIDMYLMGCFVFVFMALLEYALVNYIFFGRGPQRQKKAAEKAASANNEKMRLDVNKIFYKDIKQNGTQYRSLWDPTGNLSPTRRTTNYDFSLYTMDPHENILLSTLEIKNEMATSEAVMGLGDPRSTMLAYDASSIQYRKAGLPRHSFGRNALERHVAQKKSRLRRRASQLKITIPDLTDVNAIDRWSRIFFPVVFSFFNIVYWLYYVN
Chain of Gamma-aminobutyric acid receptor subunit alpha-1/alpha-2/beta-2/gamma-2 (P18507 whole entry): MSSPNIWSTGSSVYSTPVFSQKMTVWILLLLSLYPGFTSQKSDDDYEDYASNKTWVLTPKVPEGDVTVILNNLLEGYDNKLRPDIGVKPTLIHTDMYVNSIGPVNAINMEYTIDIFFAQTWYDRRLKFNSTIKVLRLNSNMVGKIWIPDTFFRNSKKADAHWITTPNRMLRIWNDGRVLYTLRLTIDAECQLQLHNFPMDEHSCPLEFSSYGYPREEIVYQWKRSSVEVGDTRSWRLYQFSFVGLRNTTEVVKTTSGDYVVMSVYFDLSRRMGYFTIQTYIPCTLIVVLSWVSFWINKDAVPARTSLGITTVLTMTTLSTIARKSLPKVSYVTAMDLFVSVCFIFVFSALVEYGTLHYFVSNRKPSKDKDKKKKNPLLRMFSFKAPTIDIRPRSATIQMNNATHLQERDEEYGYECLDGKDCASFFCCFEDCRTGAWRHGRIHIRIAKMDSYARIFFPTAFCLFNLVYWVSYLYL
Chain of Gamma-aminobutyric acid receptor subunit alpha-1/alpha-2/beta-2/gamma-2 (P47869 whole entry): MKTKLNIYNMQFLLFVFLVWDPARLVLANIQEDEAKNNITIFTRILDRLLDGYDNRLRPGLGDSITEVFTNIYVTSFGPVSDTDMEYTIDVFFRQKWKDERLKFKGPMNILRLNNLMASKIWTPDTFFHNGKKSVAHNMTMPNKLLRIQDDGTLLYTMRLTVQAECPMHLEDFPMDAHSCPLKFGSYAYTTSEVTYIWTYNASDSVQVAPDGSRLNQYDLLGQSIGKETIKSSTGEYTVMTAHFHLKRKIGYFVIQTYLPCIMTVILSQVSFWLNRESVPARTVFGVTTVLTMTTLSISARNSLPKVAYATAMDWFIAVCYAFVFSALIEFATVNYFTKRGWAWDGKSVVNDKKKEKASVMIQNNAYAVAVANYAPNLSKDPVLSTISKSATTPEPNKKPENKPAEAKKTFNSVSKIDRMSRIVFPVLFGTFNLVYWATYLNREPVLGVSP
Chain of Gamma-aminobutyric acid receptor subunit alpha-1 (P62813 whole entry): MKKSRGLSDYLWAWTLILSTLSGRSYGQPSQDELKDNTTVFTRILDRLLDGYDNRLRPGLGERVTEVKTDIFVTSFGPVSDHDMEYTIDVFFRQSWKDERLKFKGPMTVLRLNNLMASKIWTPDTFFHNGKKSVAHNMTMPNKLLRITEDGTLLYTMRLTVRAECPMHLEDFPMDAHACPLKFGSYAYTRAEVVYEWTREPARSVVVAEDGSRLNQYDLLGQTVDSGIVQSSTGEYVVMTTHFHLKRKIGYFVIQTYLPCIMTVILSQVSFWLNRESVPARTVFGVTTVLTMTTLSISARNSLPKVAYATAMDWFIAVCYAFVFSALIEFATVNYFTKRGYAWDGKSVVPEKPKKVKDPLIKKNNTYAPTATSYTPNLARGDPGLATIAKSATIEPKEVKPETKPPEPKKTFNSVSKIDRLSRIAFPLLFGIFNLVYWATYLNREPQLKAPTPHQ

Row | Structure (SMILES) | AC50 [1] | AC50 [2] | AC50 [3] | AC50 [4]
1 | CO/N=C(\C(=O)N[C@@H]1C(=O)N2C(C(=O)[O-])=C(C[N+]3(C)CCCC3)CS[C@H]12)c1csc(N)n1 | > 2400 µM | – | – | –
2 | CC(=O)c1ccc2c(c1)N(CCCN1CCN(CCO)CC1)c1ccccc1S2 [ACETOPHENAZINE] | > 30 µM | – | – | –
3 | CN1CCCC(n2nc(Cc3ccc(Cl)cc3)c3ccccc3c2=O)CC1 (centres undefined) [AZELASTINE] | > 30 µM | – | – | –
4 | O=C1c2c(O)c(=O)ccn2N([C@@H]2c3ccccc3SCc3c2ccc(F)c3F)[C@@H]2COCCN12 [BALOXAVIR] | – | > 30 µM | > 30 µM | > 30 µM
5 | C(=N\NC1=NCCN1)/c1c2ccccc2c(/C=N/NC2=NCCN2)c2ccccc12 [BISANTRENE] | – | > 10 µM | 6.37 µM | > 30 µM
6 | N[C@@H](C(=O)N[C@@H]1C(=O)N2C(C(=O)O)=C(Cl)CS[C@H]12)c1ccccc1 [CEFACLOR ANHYDROUS] | > 30 µM | – | – | –
7 | CCO/N=C(\C(=O)N[C@@H]1C(=O)N2C(C(=O)[O-])=C(Sc3nc(-c4cc[n+](C)cc4)cs3)CS[C@H]12)c1nsc(N)n1 [CEFTAROLINE] | – | > 30 µM | > 30 µM | –
8 | C[N+](C)(C)CCCCCCCCCC[N+](C)(C)C [DECAMETHONIUM] | – | > 30 µM | > 30 µM | –
9 | O=C1c2ccccc2C(=O)C1C(=O)C(c1ccccc1)c1ccccc1 [DIPHENADIONE] | – | 7.26 µM | > 3 µM | > 30 µM
10 | CCC(=O)O[C@H]1[C@H](O[C@@H]2[C@@H](C)[C@H](O[C@H]3C[C@@](C)(OC)[C@@H](O)[C@H](C)O3)[C@@H](C)C(=O)O[C@H](CC)[C@@](C)(O)[C@H](O)[C@@H](C)C(=O)[C@H](C)C[C@@]2(C)O)O[C@H](C)C[C@@H]1N(C)C [ERYTHROMYCIN PROPIONATE] | – | – | – | > 30 µM
11 | CCOC(=O)c1ccc(O)cc1 [ETHYLPARABEN] | – | > 30 µM | > 30 µM | –
12 | O=C1[C@H](CC[C@H](O)c2ccc(F)cc2)[C@@H](c2ccc(O)cc2)N1c1ccc(F)cc1 [EZETIMIBE] | – | > 30 µM | 4.55 µM | –
13 | O=C(COc1ccc(Cl)cc1)N1CCN(Cc2ccc3c(c2)OCO3)CC1 [FIPEXIDE] | – | > 30 µM | 6.27 µM | –
14 | CCC(=O)c1c(O)cc(O)cc1O [FLOPROPIONE] | – | > 30 µM | > 30 µM | –
15 | C#C[C@]1(O)CC[C@H]2[C@@H]3CCC4=CC(=O)CC[C@@H]4[C@H]3CC[C@@]21CC [LEVONORGESTREL] | – | – | – | 3.44 µM
16 | OC[C@@H](O)[C@@H](O)[C@H](O)[C@H](O)CO [MANNITOL] | – | – | – | > 30 µM
17 | CN1CCCC(CN2c3ccccc3Sc3ccccc32)C1 (centres undefined) [MEPAZINE] | – | – | – | > 30 µM
18 | CC(=O)Oc1c(C)cc(OCC(O)CNC(C)C)c(C)c1C (centres undefined) [METIPRANOLOL] | – | > 30 µM | > 30 µM | > 30 µM
19 | O=C1CC[C@@]2(O)[C@H]3Cc4ccc(O)c5c4[C@@]2(CCN3CC2CC2)[C@H]1O5 [NALTREXONE] | – | – | – | > 30 µM
20 | CC(N/C(=N\C#N)Nc1ccncc1)C(C)(C)C (centres undefined) [PINACIDIL ANHYDROUS] | – | > 30 µM | > 30 µM | –
21 | CN(C)C(=O)Oc1ccc[n+](C)c1 [PYRIDOSTIGMINE] | – | > 30 µM | > 30 µM | –
22 | Cc1cc2c(cc1CC(=O)c1sccc1S(=O)(=O)Nc1onc(C)c1Cl)OCO2 [SITAXENTAN] | – | – | – | > 30 µM
23 | CC(C)OC(=O)[C@H](C)N[P@](=O)(OC[C@H]1O[C@@H](n2ccc(=O)[nH]c2=O)[C@](C)(F)[C@@H]1O)Oc1ccccc1 [SOFOSBUVIR] | – | > 30 µM | > 30 µM | –
24 | CS(=O)(=O)c1ccc([C@@H](O)[C@@H](CO)NC(=O)C(Cl)Cl)cc1 [THIAMPHENICOL] | – | – | – | > 30 µM
25 | Cc1ccc(O)c2ncccc12 [TILIQUINOL] | – | > 30 µM | > 30 µM | > 30 µM
26 | CC(=O)OC[C@H]1O[C@@H](n2ccc(=O)[nH]c2=O)[C@H](OC(C)=O)[C@@H]1OC(C)=O [URIDINE TRIACETATE] | – | > 30 µM | > 30 µM | > 30 µM
27 | CCOC(=O)N[C@@H]1CC[C@@H]2[C@@H](C1)C[C@H]1C(=O)O[C@H](C)[C@H]1[C@H]2/C=C/c1ccc(-c2cccc(F)c2)cn1 [VORAPAXAR] | – | > 30 µM | 26.3 µM | –
